Consider 16 molecules from US20200129476A1, “PARP Inhibitor in Combination with a Glucocorticoid and/or Ascorbic Acid and/or a Protein Growth Factor for the Treatment of Impaired Wound Healing” (AKRIBES BIOMEDICAL GMBH, priority 2017, published 2020).

Assay [1] has as its system primary human dermal fibroblasts (HDF). Briefly: Primary human dermal fibroblast (HDF) proliferation assay (2D), with or without wound exudate. It is filed as cell-based. The following applies: for cell proliferation under wound exudate-induced inhibition: FIG. 22, WE #43 and #78 used with veliparib; for HDF proliferation, PARP inhibitor plus PDGF: PARP inhibitor dose series + PDGF 20 ng/ml, WE #78 (FIG. 18); for enhancement of PARP inhibitor effect on fibroblast proliferation: added to PARP inhibitor titration. As for the experimental part: (§1) Primary human dermal fibroblasts (HDF) were purchased from CELLnTEC, Bern. They were routinely grown in Dulbecco's modified Eagle's medium (DMEM) containing 10% FCS, 2 mM glutamine, and 100 U/ml penicillin/100 μg/ml streptomycin. Media, antibiotics, and glutamine were bought from Lonza. The cells were used at passage 5-15. Cells were trypsinized and seeded at 5000 cells/well in 200 μl into the inner wells of 96-well plates. The outer wells were loaded with sterile water. The cells were allowed to adhere overnight and then incubated for 72 hours at 37° C. under the following conditions: graded compound concentrations or 20 ng/ml PDGF-BB (Tonbo Biosciences) in the absence or presence of different dilutions of sterile-filtered WE in medium. For control samples, 200p1 medium was added instead of specific stimuli. Alternatively, the cells were seeded into 384-well plates at 2500 cells/well directly together with test compounds or growth factors and WE or medium in a total volume of […].
(§2) At the end of the 72-hour incubation period, supernatants were removed for the determination of IL-1ß, and the cells were fixed with 4% paraformaldehyde (Morphisto) for 15 minutes at room temperature and washed 3 times with PBS. A control plate was fixed after the overnight adherence of the cells (day 1) to determine the starting cell number.
Total cellular protein was determined as a measure of cell number by staining the fixed cells with sulforhodamine B (SRB, Sigma). A 0.4% SRB solution in 1% acetic acid was added to the wells for 30 minutes. The wells were then washed with 1 acetic acid until the wash solution remained colorless. After drying, the dye was eluted with 10 mM Tris.HCl, pH8.5, and absorbance was measured either at 550 or 492 nm for lower and higher cell densities, respectively. The average absorbance of the sample representing the day 1 starting cell number (for 96-well plates) was subtracted from the absorbance values of the WE-treated cells.
All experiments were carried out in triplicate for each sample and concentration, and means±standard deviation (SD) were used for the evaluation of the experiment. Results are expressed as percentage of control values for unstimulated cells.
Low molecular weight compounds (see list in Table 1) were dissolved in DMSO (Bioreagent for cell culture, Sigma) at 10 mM or 100 mM and diluted at least 1:1000 in medium for cellular assays (final DMSO concentration ≤0.1%).
(§3) Cells were incubated with compounds for 72 hours in proliferation assays and up to 8 days for FDM assay (refreshed after 4 days). When compounds were tested for their effect on WE stimulation, the incubation of cells with compounds was started and ended simultaneously with WE-incubation.

The test system is the same in assay [2]. Briefly: Fibroblast-derived matrix (FDM) formation assay (3D), with or without wound exudate. It counts as cell-based. The settings on record: for FDM formation, veliparib combined with glucocorticoid: WE #78, patient with diabetes, immunosuppression after kidney transplantation (FIG. 7). The protocol: HDF cells were seeded at 5000 cells/well on day −3 into 96-well tissue culture plates (1250 cells/well for 384-well plates), which had been pre-coated for 1 hour at 37° C. with 0.2% gelatin solution (Sigma). When the cells reached confluence (=day 0), a matrix promoting supplement (vitamin C: 2-phospho-L-ascorbic acid trisodium salt, 100 μg/ml; Sigma) was added together with test samples containing PDGF-BB, TGF-ß1 or graded concentrations of compounds −/+WE as described for the HDF proliferation assay. After 4 days, medium was replaced by fresh vitamin C- and stimulus- as well as compound-containing medium, maintaining the conditions initiated on day 0. TGF-ß1 and PDGF-BB were included as positive controls to promote FDM formation and cell growth, respectively. After a total incubation time of 8 days, FDM production was measured in fixed cultures via SRB staining and evaluated as described above. In some cases, the experiment was stopped and evaluated already on day 4.
Low molecular weight compounds (see list in Table 1) were dissolved in DMSO (Bioreagent for cell culture, Sigma) at 10 mM or 100 mM and diluted at least 1:1000 in medium for cellular assays (final DMSO concentration ≤0.1%). Compounds were typically tested in half-logarithmic dilution series (1:3.33), starting at 10 μM or 100 μM as the highest compound concentration.
as §3

In another assay the test system is IL-1ß. Briefly: IL-1ß secretion by HDF in the presence of wound exudate (ELISA). The following applies: FIG. 22; WE #43 and #78 used with veliparib. It is filed as cell-based, human. As for the experimental part: as §1, §2
IL-1ß levels were determined with a commercial ELISA kit. The amount of IL-1ß contained in the wound exudate added to the cells was subtracted from the total IL-ß in the supernatants in order to determine the cytokine secreted by the cells.
In general terms: An ELISA detects its analyte on a solid surface through an enzyme-linked reagent.

[3] abbreviates: presence of WE #78 (diabetic patient).
Where [4] appears, read: presence of wound exudate (WE) of patients, several or unspecified WE.
[5] abbreviates: presence of ⅔ of the wound exudates tested.
The mark [6] stands for this setting: absence of wound exudate (normal medium).

Entries after “also recorded” stand apart in the source; their conditions may differ.

Regarding `Oc1cccc2c(O)nccc12` [1,5-IQD, 1,5-Isoquinolinediol], the “fibroblast (HDF) proliferation” value in assay [1] (presence of WE #43) and in assay [1] (setting [3]) was “less active or inactive” throughout.

`NC(=O)c1cccc(N)c1` [3-AB, 3-Aminobenzamide]: the “fibroblast (HDF) proliferation” value in assay [1] (presence of WE #43) and in assay [1] (setting [3]) was “less active or inactive” throughout.

With `CN(C)Cc1ccc(-c2nc3cccc4c3n2CCNC4=O)cc1` [AG-14361], the “fibroblast-derived matrix (FDM) formation” value in assay [2] (presence of WE #78 (FIG. 9)) is listed as “strong positive effect”. In addition, the “cell proliferation under wound exudate-induced inhibition” value in assay [1] was “enhanced cell proliferation”. For the same molecule, in the assay on IL-1ß, the “IL-1ß secretion induced by wound exudate” value is “reducing IL-1ß secretion”.

As for `COC1CCN(C(=O)c2cc(Cc3n[nH]c(=O)c4ccccc34)ccc2F)CC1` [AZD-2461], in assay [2] (presence of WE #78 (FIG. 9)), the “fibroblast-derived matrix (FDM) formation” value is reported as “strong positive effect”. For the same molecule, the “cell proliferation under wound exudate-induced inhibition” value in assay [1] was “enhanced cell proliferation”. Also, the “IL-1ß secretion induced by wound exudate” value in the assay with IL-1ß is listed as “reducing IL-1ß secretion”.

As to `CN(C)CC(=O)Nc1ccc2[nH]c(=O)c3ccccc3c2c1.Cl` [PJ-34, N-(6-Oxo-5,6-dihydro-phenanthridin-2-yl)-N,N-dimethylacetamide.HCl], the “fibroblast (HDF) proliferation” value in assay [1] (presence of WE #43) and in assay [1] (setting [3]) was “less active or inactive” in each case.

For the molecule `C[C@H]1C[C@H]2[C@@H]3CCC4=CC(=O)C=C[C@]4(C)[C@@]3(Cl)[C@@H](O)C[C@]2(C)[C@@]1(O)C(=O)CO` [beclomethasone], the “fibroblast (HDF) proliferation” value in assay [1] (setting [4]) is given as “Qualitatively identical results”.

For the molecule `CC1(COc2ccc3c(c2)ncn3-c2ccc3cccc(N4CCC(N)CC4)c3n2)COC1` [crenolanib, Crenolanib], the “effect on PDGF-enhanced proliferation” value in assay [1] (crenolanib 1 μM, PDGF 20 ng/ml, absence of WE (FIG. 19)) was “completely abrogated”. For the same molecule, the “fibroblast (HDF) proliferation” value in assay [1] (setting [3]) is reported as “without any effect”.

Turning to `C[C@@H]1C[C@H]2[C@@H]3C[C@H](F)C4=CC(=O)C(Cl)=C[C@]4(C)[C@@]3(F)[C@@H](O)C[C@]2(C)[C@@]1(O)C(=O)CO` [halomethasone], the “fibroblast (HDF) proliferation” value in assay [1] (setting [4]) is recorded as “Qualitatively identical results”.

For `C[C@]12CCC(=O)C=C1CC[C@@H]1[C@@H]2[C@@H](O)C[C@@]2(C)[C@H]1CC[C@]2(O)C(=O)CO` [hydrocortisone, Hydrocortisone], the “fibroblast (HDF) proliferation” value in assay [1] (setting [4]) is listed as “Qualitatively identical results; also recorded: effect was confirmed”.

Regarding `O=C(c1cc(Cc2n[nH]c(=O)c3ccccc23)ccc1F)N1CCN(C(=O)C2CC2)CC1` [olaparib], the “fibroblast-derived matrix (FDM) formation” value in assay [2] (presence of WE #78 (FIG. 9)) is on record as “strong positive effect”. Besides, in assay [1], the “cell proliferation under wound exudate-induced inhibition” value was “enhanced cell proliferation” and the “HDF proliferation, PARP inhibitor plus PDGF” value is given as “even further enhanced by the addition of PDGF”. In addition, in assay [1] (setting [3]), the “fibroblast (HDF) proliferation” value is recorded as “dose-dependent increase of HDF proliferation”. The “IL-1ß secretion induced by wound exudate” value with IL-1ß is listed as “reducing IL-1ß secretion”.

For the molecule `C[C@]12C=CC(=O)C=C1CC[C@@H]1[C@@H]2[C@@H](O)C[C@@]2(C)[C@H]1CC[C@]2(O)C(=O)CO` [prednisolone, Prednisolone], the “fibroblast (HDF) proliferation” value in assay [1] (setting [4]) was “Qualitatively identical results; also recorded: effect was confirmed”.

For the molecule `C[C@]12C=CC(=O)C=C1CC[C@@H]1[C@@H]2[C@@H](O)C[C@@]2(C)[C@H]1CC[C@]2(O)C(=O)CO` [prelone], the “fibroblast (HDF) proliferation” value in assay [1] (setting [4]) is given as “Qualitatively identical results”.

Regarding `CNCc1ccc(-c2[nH]c3cc(F)cc4c3c2CCNC4=O)cc1` [rucaparib], the “fibroblast-derived matrix (FDM) formation” value in assay [2] (presence of WE #78 (FIG. 9)) is listed as “strong positive effect”. In assay [1], the “cell proliferation under wound exudate-induced inhibition” value was “enhanced cell proliferation” and the “HDF proliferation, PARP inhibitor plus PDGF” value is on record as “even further enhanced by the addition of PDGF”. In assay [1] (setting [3]), the “fibroblast (HDF) proliferation” value is given as “dose-dependent increase of HDF proliferation”. In addition, the “IL-1ß secretion induced by wound exudate” value in the assay on IL-1ß was “reducing IL-1ß secretion”.

For `O=C1O[C@H]([C@@H](O)CO)C(O)=C1O` [vitamin C, ascorbic acid], the “fibroblast-derived matrix (FDM/ECM) formation” value in assay [2] (absence of wound exudate) is “enhances both fibroblast proliferation in the fibroblast proliferation assay (also called 2D assay) and fibroblast-derived matrix (FDM) formation”. For the same molecule, in assay [2] (setting [5]), the “fibroblast-derived matrix (FDM) formation” value was “no effect on fibroblast proliferation in the 2D assay or fibroblast-derived matrix (FDM) formation in the 3D assay”. Moreover, the “fibroblast (HDF) proliferation” value is recorded as “enhances HDF proliferation/ECM formation; also recorded: enhances both fibroblast proliferation” in assay [1] (setting [6]) and “no effect on HDF proliferation/ECM formation; also recorded: no effect on fibroblast proliferation in the 2D assay” in assay [1] (setting [5]). The “enhancement of PARP inhibitor effect on fibroblast proliferation” value is “strong and consistent synergistic effect could be confirmed; also recorded: synergistically enhance the PARP inhibitor compound effects” in assay [1] (WE #43, different patient (FIG. 15)); “enhance the positive enhancing effect of the PARP antagonists; also recorded: synergistically enhance the PARP inhibitor compound effects” in assay [1] (dexamethasone 3 nM, vitamin C 100 μg/ml, WE #78 (FIG. 14)).

For Medroxyprogesterone, the results for the “FDM formation, veliparib combined with glucocorticoid” value in assay [2] and in assay [2] (listed as MED) were “enhance the effect of veliparib on rescuing fibroblast-derived matrix (FDM) formation after wound exudate treatment” and “enhance the effect of veliparib on rescuing FDM formation after WE treatment”, respectively. Besides, in assay [2] (presence of wound exudate, WE not specified (FIG. 6: microscopy)), the “fibroblast-derived matrix (FDM/ECM) formation” value is “surprisingly enhances HDF proliferation and ECM formation”. Also, the “fibroblast (HDF) proliferation” value in assay [1] (setting [4]) was “Qualitatively identical results; also recorded: surprisingly enhances HDF proliferation and ECM formation; also recorded: effect was confirmed”.

B1: PDGF: Platelet-derived growth factor, protein growth factor (Tonbo Biosciences) (protein, UniProt P01127 82-190, looked up)
Platelet-derived growth …: SLGSLTIAEPAMIAECKTRTEVFEISRRLIDRTNANFLVWPPCVEVQRCSGCCNNRNVQCRPTQVQLRPVQVRKIEIVRKKPIFKKATVTLEDHLACKCETVAAARPVT
modifications: PDGF-BB homodimer
Take B1: the “HDF proliferation, PDGF added to talazoparib” value in assay [1] (PDGF 20 ng/ml + talazoparib 0.3 μM, WE #78 (FIG. 19)) was “further enhanced this recovery”. Moreover, the “fibroblast (HDF) proliferation” value in assay [1] (setting [6]) was “induces HDF proliferation; also recorded: enhances proliferation”; in assay [1] (setting [3]) it was “has no effect; also recorded: inactive; also recorded: without any effect”.
